Experimental findings from ChEMBL document CHEMBL1134115, “Antimycobacterial activity of 9-sulfonylated/sulfenylated-6-mercaptopurine derivatives” (Bioorg Med Chem Lett, 2001) are described below.

Converted amounts (≈) assume the structure as drawn.

Assay [1] deals with Mycobacterium tuberculosis. The assay can be described thus: Antimycobacterial activity against Mycobacterium tuberculosis wild type (WT, H37Rv). Type of assay: functional.
A short description of assay [2]: Selectivity index (IC50/MIC) was determined. Type of assay: functional.
Assay [3] deals with Mycobacterium tuberculosis. The assay can be described thus: Antimycobacterial activity against Mycobacterium tuberculosis H37Rv using Microplate Alamar Blue Assay (MABA) assay. Type of assay: functional. Background: Alamar Blue is a resazurin reagent that responds to reducing activity.
The subject of the next assay is Vero. The assay can be described thus: Cytotoxicity determined in VERO cells at concentrations less than or equal to […] or 10 times the MIC against Mycobacterium tuberculosis H37Rv. Type of assay: functional, cell-based. The following applies: Chlorocebus sabaeus.
Another assay relates to Mycobacterium avium. Description: Percent inhibition against Mycobacterium avium at the dose of 12.5 uM using Microplate Alamar Blue Assay (MABA) assay. Type of assay: functional.
Assay [4] has as its system Mycobacterium tuberculosis. The assay can be described thus: Antimycobacterial activity against Mycobacterium tuberculosis Erdman using Microplate Alamar Blue Assay (MABA) assay. Type of assay: functional.

As for `O=S(=O)(c1ccc(Cl)cc1)n1cnc2c(S)ncnc21`, the MIC in assay [1] and in assay [3] was 3.13 µg/mL (≈ 9.58 µM) each time. The molecule also yielded a Selectivity index in assay [2] of 0.32 SI. Further, in the assay on Vero, the IC50 (as a rule, the midpoint of a concentration-inhibition curve) came out at 1 µg/mL (≈ 3.06 µM). Further, the inhibition (as a rule, the percentage by which the read-out fell short of the control) at 12.5 µM in the assay with Mycobacterium avium is 60%.

`O=[N+]([O-])c1ccccc1Sn1cnc2c(S)ncnc21` had a Selectivity index in assay [2] of 6.4 SI. For the same molecule, the MIC (as a rule, the lowest concentration found to suppress growth) in assay [3] turned out to be 0.78 µg/mL (≈ 2.55 µM). Moreover, in the assay on Vero, the midpoint of inhibition, the IC50, lay at 5 µg/mL (≈ 16.4 µM). This molecule also gave an inhibition at 12.5 µM with Mycobacterium avium of 75%.

On to `Nc1cccc(S(=O)(=O)n2cnc3c(S)ncnc32)c1`, for which the MIC in assay [1] and in assay [3] was 3.13 µg/mL (≈ 10.2 µM) throughout. In addition, the Selectivity index in assay [2] came out at 150 SI. Further, the midpoint of inhibition with Vero, the IC50, lay at 468 µg/mL (≈ 1520 µM). The molecule also returned an inhibition at 12.5 µM in the assay on Mycobacterium avium of 68%.

In assay [2], `O=S(=O)(c1ccc(F)cc1)n1cnc2c(S)ncnc21` displayed a Selectivity index of 0.3 SI. Also, it took 3.39 µg/mL (≈ 10.9 µM) to inhibit growth in assay [3] (MIC). Also, the IC50 in the assay with Vero was 1 µg/mL (≈ 3.22 µM). Besides, in the assay on Mycobacterium avium, the inhibition at 12.5 µM worked out at 70%.

In the case of `Nc1ccc(S(=O)(=O)n2cnc3c(S)ncnc32)cc1`, in assay [2], the Selectivity index was > 128 SI. Moreover, in assay [3], 0.78 µg/mL (≈ 2.54 µM) was the least that counted as inhibitory (MIC). Further, the IC50 with Vero is > 100 µg/mL. 12.5 µM produced 63% inhibition in the assay on Mycobacterium avium.

For the molecule `O=S(=O)(c1ccc(Br)cc1)n1cnc2c(S)ncnc21`, in assay [2], the Selectivity index is 2.6 SI. In addition, inhibition of growth in assay [3] (MIC) required 0.78 µg/mL (≈ 2.1 µM). 2 µg/mL (≈ 5.39 µM) corresponded to half-maximal inhibition in the assay on Vero (IC50). The molecule also came in with an inhibition at 12.5 µM in the assay with Mycobacterium avium of 81%.

As to `CO[C@H]1/C=C/O[C@@]2(C)Oc3c(C)c(O)c4c(O)c(c(/C=N/N5CCN(C)CC5)c(O)c4c3C2=O)NC(=O)/C(C)=C\C=C\[C@H](C)[C@H](O)[C@@H](C)[C@@H](O)[C@@H](C)[C@H](OC(C)=O)[C@@H]1C` [RIFAMPIN], the MIC in assay [1] and in assay [3] was 0.125 µg/mL (≈ 0.152 µM) in each case. For the same molecule, the Selectivity index in assay [2] was > 8000 SI. Moreover, the IC50 in the assay on Vero is > 1000 µg/mL.

For `O=[N+]([O-])c1ccccc1S(=O)(=O)n1cnc2c(S)ncnc21`, in assay [2], the Selectivity index was determined as 40 SI. Besides, it took 1.56 µg/mL (≈ 4.62 µM) to inhibit growth in assay [3] (MIC). The molecule also had an IC50 in the assay on Vero of 64 µg/mL (≈ 190 µM). Besides, in the assay with Mycobacterium avium, the inhibition at 12.5 µM was found to be 50%.

In assay [2], `Cc1ccc(S(=O)(=O)n2cnc3c(S)ncnc32)cc1` returned a Selectivity index of 2.5 SI. Also, the lowest concentration to inhibit growth in assay [3] (MIC) was 1.6 µg/mL (≈ 5.22 µM). In the assay with Vero, this molecule returned an IC50 of 4 µg/mL (≈ 13.1 µM). The inhibition at 12.5 µM with Mycobacterium avium worked out at 73%.

`O=[N+]([O-])c1ccc(Sn2cnc3c(S)ncnc32)cc1`: the MIC in assay [4] and in assay [1] was 0.78 µg/mL (≈ 2.55 µM) each time. For the same molecule, in assay [2], the Selectivity index is 58 SI. The same molecule gave an IC50 in the assay on Vero of 45 µg/mL (≈ 147 µM). The molecule further yielded an inhibition at 12.5 µM with Mycobacterium avium of 79%.

`CC(=O)Nc1ccc(S(=O)(=O)n2cnc3c(S)ncnc32)cc1`: the MIC in assay [1] and in assay [3] was 0.78 µg/mL (≈ 2.23 µM) throughout. Besides, the Selectivity index in assay [2] is > 256 SI. Moreover, the IC50 in the assay with Vero is > 200 µg/mL. The same molecule gave an inhibition at 12.5 µM in the assay on Mycobacterium avium of 57%.

In the case of `CN(C)S(=O)(=O)n1cnc2c(=S)[nH]cnc21`, the MIC in assay [1] and in assay [3] was 0.39 µg/mL (≈ 1.5 µM) throughout. In addition, in assay [2], the Selectivity index is > 513 SI. Moreover, the IC50 in the assay with Vero was > 200 µg/mL. At 12.5 µM the inhibition in the assay on Mycobacterium avium was 40%.
